Measurements published in patent US7655429B2, “Immunoassays for topiramate” (Seradyn, Inc., priority 2004, dated 2010).

System: anti-topiramate antibodies prepared with immunogen (18)
Test: ELISA binding inhibition study (avidity), free topiramate versus coated antigen
Set-up: species or system Rabbit; Abs: unit not given here
Description: ELISA plates for use in an ELISA assay are prepared in order to study the polyclonal antibody prepared as described in Example 21. As such, various topiramate antigens (16), (19), and (20) are coated on different ELISA plates before being subjected to the anti-topiramate antibody and competing free topiramate. More particularly, the topiramate antigens are diluted in coating buffer, and then added to the wells of ELISA plate. After the ELISA plate is incubated for 60 min at 37° C., the solvent in the coating buffer is decanted and a blocking buffer is added to the plate. The plate is incubated again for 60 min at 37° C., and the solvent in the blocking buffer is decanted from the plate. The ELISA plate is then stored with the blocking agent in the wells at 2-8° C. for up to 1 week. The avidity of the anti-topiramate antibodies prepared with immunogen (17) for topiramate analogs are determined by a binding inhibition study. As such, samples are prepared in 1 mL of PBS at pH 7.4 with 0.1% BSA. A composition having 30% Bmax titer or 50% Bmax titer is used to divide the obtained titer value into approximately half the titer value. Using 30% Bmax, an antibody titer of 1:10,000 is diluted to 1:5,000 during the sample preparation stage. About 50 μL of topiramate at different concentrations or calibrator values, (0, 2, 4, 8, 16, 32 μg/ml) are then applied to a plate as prepared in accordance with Example 22. About 50 μL of the diluted antibody is dispensed into the plate, and the compositions in the plate are mixed for 1 min on a horizontal plate shaker. The plate is characterized by a first row not containing topiramate or anti-topiramate antibody, wherein the first row is used as a negative control. A second row not containing topiramate is used as the positive control. The plate is incubated for 60 min, and washed three times with 250 μL of PBS at pH 7.4 with 0.05% tween. About 125 μL of a diluted second antibody conjugate such as antigens (16), (19), or (20), in PBS at pH 7.4 is added to each well of the plate. Titer is determined experimentally by the plate being incubated for 60 min at 37° C. and washed 3 times with 250 μL PBS, pH 7.4 with 0.05% tween. Subsequently, about 125 μL of ABTS substrate is added to each well of the plate and incubated for 20 min. The avidity of the anti-topiramate antibodies prepared with immunogen (18) for topiramate analogs is determined by a binding inhibition study performed with an experimental protocol substantially similar as in Example 24.

[1] = Antigen 16, Topiramate 2 μg/ml, Rabbit No. 5490
[2] = Antigen 16, Topiramate 2 μg/ml, Rabbit No. 5495
[3] = Antigen 16, Topiramate 4 μg/ml, Rabbit No. 5490
[4] = Antigen 16, Topiramate 4 μg/ml, Rabbit No. 5495
[5] = Antigen 16, Topiramate 8 μg/ml, Rabbit No. 5490
[6] = Antigen 16, Topiramate 8 μg/ml, Rabbit No. 5495
[7] = Antigen 16, Topiramate 16 μg/ml, Rabbit No. 5490
[8] = Antigen 16, Topiramate 16 μg/ml, Rabbit No. 5495
[9] = Antigen 16, Topiramate 32 μg/ml, Rabbit No. 5490
[10] = Antigen 16, Topiramate 32 μg/ml, Rabbit No. 5495
[11] = Antigen 19, Topiramate 2 μg/ml, Rabbit No. 5490
[12] = Antigen 19, Topiramate 2 μg/ml, Rabbit No. 5495
[13] = Antigen 19, Topiramate 4 μg/ml, Rabbit No. 5490
[14] = Antigen 19, Topiramate 4 μg/ml, Rabbit No. 5495
[15] = Antigen 19, Topiramate 8 μg/ml, Rabbit No. 5490
[16] = Antigen 19, Topiramate 8 μg/ml, Rabbit No. 5495
[17] = Antigen 19, Topiramate 16 μg/ml, Rabbit No. 5490
[18] = Antigen 19, Topiramate 16 μg/ml, Rabbit No. 5495
[19] = Antigen 19, Topiramate 32 μg/ml, Rabbit No. 5490
[20] = Antigen 19, Topiramate 32 μg/ml, Rabbit No. 5495
[21] = Antigen 20, Topiramate 2 μg/ml, Rabbit No. 5490
[22] = Antigen 20, Topiramate 2 μg/ml, Rabbit No. 5495
[23] = Antigen 20, Topiramate 4 μg/ml, Rabbit No. 5490
[24] = Antigen 20, Topiramate 4 μg/ml, Rabbit No. 5495
[25] = Antigen 20, Topiramate 8 μg/ml, Rabbit No. 5490
[26] = Antigen 20, Topiramate 8 μg/ml, Rabbit No. 5495
[27] = Antigen 20, Topiramate 16 μg/ml, Rabbit No. 5490
[28] = Antigen 20, Topiramate 16 μg/ml, Rabbit No. 5495
[29] = Antigen 20, Topiramate 32 μg/ml, Rabbit No. 5490
[30] = Antigen 20, Topiramate 32 μg/ml, Rabbit No. 5495

Abs [1]: 0.25 | B/Bo [1]: 0.35 | Abs [2]: 0.25 | B/Bo [2]: 0.35 | Abs [3]: 0.20 | B/Bo [3]: 0.28 | Abs [4]: 0.28 | B/Bo [4]: 0.39 | Abs [5]: 0.15 | B/Bo [5]: 0.21 | Abs [6]: 0.15 | B/Bo [6]: 0.21 | Abs [7]: 0.12 | B/Bo [7]: 0.17 | Abs [8]: 0.12 | B/Bo [8]: 0.17 | Abs [9]: 0.10 | B/Bo [9]: 0.14 | Abs [10]: 0.10 | B/Bo [10]: 0.14 | Abs [11]: 0.10 | B/Bo [11]: 0.18 | Abs [12]: 0.13 | B/Bo [12]: 0.20 | Abs [13]: 0.06 | B/Bo [13]: 0.10 | Abs [14]: 0.08 | B/Bo [14]: 0.12 | Abs [15]: 0.04 | B/Bo [15]: 0.07 | Abs [16]: 0.05 | B/Bo [16]: 0.08 | Abs [17]: 0.03 | B/Bo [17]: 0.06 | Abs [18]: 0.04 | B/Bo [18]: 0.06 | Abs [19]: 0.02 | B/Bo [19]: 0.04 | Abs [20]: 0.02 | B/Bo [20]: 0.03 | Abs [21]: 0.25 | B/Bo [21]: 0.63 | Abs [22]: 0.18 | B/Bo [22]: 0.53 | Abs [23]: 0.24 | B/Bo [23]: 0.60 | Abs [24]: 0.17 | B/Bo [24]: 0.50 | Abs [25]: 0.22 | B/Bo [25]: 0.55 | Abs [26]: 0.16 | B/Bo [26]: 0.47 | Abs [27]: 0.21 | B/Bo [27]: 0.53 | Abs [28]: 0.14 | B/Bo [28]: 0.41 | Abs [29]: 0.20 | B/Bo [29]: 0.50 | Abs [30]: 0.11 | B/Bo [30]: 0.32
Compound: CC1(C)O[C@@H]2[C@@H](CO[C@@]3(COS(N)(=O)=O)OC(C)(C)O[C@@H]23)O1 [Topiramate, 2,3:4,5-di-O-isopropylidene-beta-D-fructopyranose sulfamate]
